From paper PMC6100079, “Design, Synthesis, and Evaluation of Homochiral Peptides Containing Arginine and Histidine as Molecular Transporters” (Molecules : A Journal of Synthetic Chemistry and Natural …, 2018)
Ends that are not written are not given here. Peptide text beside a SMILES is read from it. * marks the point of attachment. Oleoyl = CCCCCCCC/C=C\CCCCCCCC(=O)*; HOOC(CH2)6CO = O=C(O)CCCCCCC(=O)*; Palmitoyl = CCCCCCCCCCCCCCCC(=O)*; Myristoyl = CCCCCCCCCCCCCC(=O)*; Lauroyl = CCCCCCCCCCCC(=O)*

Assays:
[1] = tested on: human leukemia cancer cell line (CCRF-CEM); assay: Cytotoxicity (MTS proliferation assay) of peptides in CCRF-CEM cells; assay type: cell-based
Procedure: (§1) All bioassays were performed in triplicate.
(§2) The linear and cyclic peptides at concentrations (5, 10, 25, 50 and 100 µM) were added to the cells and incubated at 37 °C with 5% carbon dioxide for 72 h. After 72 h of incubation, the pH of media were tested. […] Then 20 µL of MTS reagent was added to each well. […] The […] of the formazan product was measured at 490 nm using a Spectra Max M2 microplate spectrophotometer. The percentage of cell survival was calculated as [(OD value of cells treated with the test mixture of compounds) − (OD value of culture medium)]/[(OD value of control cells) − (OD value of culture medium)] × 100%.

[2] = tested on: human ovarian adenocarcinoma (SK-OV-3) cells; assay: Cytotoxicity (MTS proliferation assay) of peptides in SK-OV-3 cells; assay type: cell-based
Procedure: as §1, §2

[3] = tested on: CCRF-CEM cells; assay: Antiproliferative assay of anticancer drugs using C20-(HR)4 in CCRF-CEM cells; conditions: drug 5 µM + C20-(HR)4 50 µM, 72 h, vs drug alone
[4] = tested on: SK-OV-3 cells; assay: Antiproliferative assay of anticancer drugs using C20-(HR)4 in SK-OV-3 cells; assay type: cell-based, human; conditions: SK-OV-3 (for doxorubicin, epirubicin per b1 and b46; not restated for the 1.5 fold sentence); drug 5 µM + C20-(HR)4 50 µM; 72 h; vs drug alone
Procedure: as §1

[5] = SK-OV-3, up to / at 50 µM peptide

Molecule | cytotoxicity (in words) ([1]; 100 µM peptide) | cytotoxicity (in words) ([1]; up to / at 50 µM peptide) | cytotoxicity (in words) ([2]; SK-OV-3, 100 µM peptide) | cytotoxicity (in words) [2, 5] | also measured
N=C(N)NCCC[C@H](NC(=O)[C@H](Cc1c[nH]cn1)NC(=O)[C@H](CCCNC(=N)N)NC(=O)[C@H](Cc1c[nH]cn1)NC(=O)[C@H](CCCNC(=N)N)NC(=O)[C@H](Cc1c[nH]cn1)NC(=O)[C@H](CCCNC(=N)N)NC(=O)[C@H](Cc1c[nH]cn1)NC(=O)CCCCCCC(=O)O)C(=O)O [C8-(HR)4] ({HOOC(CH2)6CO}-HRHRHRHR-OH) | mild cytotoxicity | not toxic | mild cytotoxicity | not toxic | cytotoxicity (in words) ([1]; up to / at 50 µM peptide, listed as C8): did not show cytotoxicity; cytotoxicity (in words) ([2]; SK-OV-3, up to / at 50 µM peptide, listed as C8): did not show cytotoxicity
CCCCCCCCCCCC(=O)N[C@@H](Cc1c[nH]cn1)C(=O)N[C@@H](CCCNC(=N)N)C(=O)N[C@@H](Cc1c[nH]cn1)C(=O)N[C@@H](CCCNC(=N)N)C(=O)N[C@@H](Cc1c[nH]cn1)C(=O)N[C@@H](CCCNC(=N)N)C(=O)N[C@@H](Cc1c[nH]cn1)C(=O)N[C@@H](CCCNC(=N)N)C(=O)O [C12-(HR)4] (Lauroyl-HRHRHRHR-OH) | mild cytotoxicity | not toxic | mild cytotoxicity | not toxic | cytotoxicity (in words) ([1]; up to / at 50 µM peptide, listed as C12): did not show cytotoxicity; cytotoxicity (in words) ([2]; SK-OV-3, up to / at 50 µM peptide, listed as C12): did not show cytotoxicity
CCCCCCCCCCCCCC(=O)N[C@@H](Cc1c[nH]cn1)C(=O)N[C@@H](CCCNC(=N)N)C(=O)N[C@@H](Cc1c[nH]cn1)C(=O)N[C@@H](CCCNC(=N)N)C(=O)N[C@@H](Cc1c[nH]cn1)C(=O)N[C@@H](CCCNC(=N)N)C(=O)N[C@@H](Cc1c[nH]cn1)C(=O)N[C@@H](CCCNC(=N)N)C(=O)O [C14-(HR)4] (Myristoyl-HRHRHRHR-OH) | mild cytotoxicity | not toxic | mild cytotoxicity | not toxic | cytotoxicity (in words) ([1]; up to / at 50 µM peptide, listed as C14): did not show cytotoxicity; cytotoxicity (in words) ([2]; SK-OV-3, up to / at 50 µM peptide, listed as C14): did not show cytotoxicity
CCCCCCCCCCCCCCCC(=O)N[C@@H](Cc1c[nH]cn1)C(=O)N[C@@H](CCCNC(=N)N)C(=O)N[C@@H](Cc1c[nH]cn1)C(=O)N[C@@H](CCCNC(=N)N)C(=O)N[C@@H](Cc1c[nH]cn1)C(=O)N[C@@H](CCCNC(=N)N)C(=O)N[C@@H](Cc1c[nH]cn1)C(=O)N[C@@H](CCCNC(=N)N)C(=O)O [C16-(HR)4] (Palmitoyl-HRHRHRHR-OH) |  | significant reduction in the cell viability |  | significant reduction in the cell viability | cytotoxic effect ([1]; 10 µM peptide, 72 h, MTS): 0%; reduction in cell viability ([2]; SK-OV-3 (sentence speaks of both cell lines), 50 and 100 µM peptide, respectively, 72 h, MTS): 35–70%; cytotoxic effect / reduction of proliferation ([2]; SK-OV-3, 10 µM peptide, 72 h, MTS): 0%; reduction of proliferation ([2]; SK-OV-3, 50 µM peptide): 11%
CCCCCCCC/C=C\CCCCCCCC(=O)N[C@@H](Cc1c[nH]cn1)C(=O)N[C@@H](CCCNC(=N)N)C(=O)N[C@@H](Cc1c[nH]cn1)C(=O)N[C@@H](CCCNC(=N)N)C(=O)N[C@@H](Cc1c[nH]cn1)C(=O)N[C@@H](CCCNC(=N)N)C(=O)N[C@@H](Cc1c[nH]cn1)C(=O)N[C@@H](CCCNC(=N)N)C(=O)O [C18-(HR)4] (Oleoyl-HRHRHRHR-OH) | mild cytotoxicity | not toxic | mild cytotoxicity | not toxic | cytotoxicity (in words) ([1]; up to / at 50 µM peptide, listed as C18): did not show cytotoxicity; cytotoxicity (in words) ([2]; SK-OV-3, up to / at 50 µM peptide, listed as C18): did not show cytotoxicity
COc1cc([C@@H]2c3cc4c(cc3[C@@H](O[C@@H]3O[C@@H]5CO[C@@H](C)O[C@H]5[C@H](O)[C@H]3O)[C@H]3COC(=O)[C@H]23)OCO4)cc(OC)c1O [etoposide] |  |  |  |  | improvement of the drug's anti-proliferating potency by C20-(HR)4 [3]: did not improve; improvement of the drug's anti-proliferation potency / toxicity upon loading (physical mixture) with C20-(HR)4 [4]: one and half
CC(=O)O[C@H]1C(=O)[C@@]2(C)[C@H]([C@H](OC(=O)c3ccccc3)[C@]3(O)C[C@H](OC(=O)[C@H](O)[C@@H](NC(=O)c4ccccc4)c4ccccc4)C(C)=C1C3(C)C)[C@]1(OC(C)=O)CO[C@@H]1C[C@@H]2O [paclitaxel] |  |  |  |  | improvement of the drug's anti-proliferating potency by C20-(HR)4 [3]: did not improve
Ac-HRHRHRHR [C2-(HR)4] |  | not toxic |  | not toxic | 
